According to patent publication US5223526A, “Pyrazole carboxanilide fungicides and use” (Monsanto Company, priority 1992, dated 1993):
Where two headings read alike, the source gives them in different places.

Tests used:
Rhizoctonia solani = test: Rice sheath blight; format: in vivo; parameters: scale not given here; conditions: inoculated two days later, rated after 7 days, average of five plants; for Disease Control Rating at 0.02 mg/mL: foliage and soil sprayed with 0.02 mg/mL; for Disease Control Rating at 0.1 mg/mL: foliage and soil sprayed with 0.1 mg/mL; for Disease Control Rating at 0.5 mg/mL: foliage and soil sprayed with 0.5 mg/mL
How it was run: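 Preventive test: R. solani inoculum on rice grain was applied at the plant base two days after spraying foliage and soil with Compound A (0.5, 0.1 or 0.02 mg/mL, water/acetone/Tween 20). Plants aged 11–15 days stood in flood trays; after 7 days at 25 °C and high humidity, disease control was rated against untreated plants, five plants averaged.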

succinate dehydrogenase = biological target: T1, succinate dehydrogenase (Botrytis cinerea, UniProt A0A384J5E4+A0A384J8V8+A0A384JHJ5); test: Enzyme inhibition: succinate dehydrogenase activity in Botrytis cinerea mitochondria (DCPIP reduction); format: biochemical
T1 construct: succinate-DCPIP reductase assay with KCN
How it was run: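 DCPIP (45 μM) reduction at 600 nm tracked with 17 mM succinate, 1 mM KCN and 50 mM potassium phosphate, pH 7.2. Compounds were added in acetone (final 1% v/v), and Botrytis cinerea isolate Nick mitochondrial fraction initiated the reaction. Rates minus endogenous activity gave percentage inhibition, plotted semilog against concentration to derive I50 (μM).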

Botrytis cinerea [1] = test: Eggplant grey mold; format: in vivo; parameters: scale not given here; conditions: inoculated 24 h later, rated after 3-4 days; for Disease Control Rating at 20 ppm: eggplant sprayed with 20 ppm; for Disease Control Rating at 100 ppm: eggplant sprayed with 100 ppm; for Disease Control Rating at 500 ppm: eggplant sprayed with 500 ppm
How it was run: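 Protective test: compound formulations (2:3 acetone:water, 0.5% Tween 20; 500, 100 or 20 ppm) sprayed on 14-18-day-old plants, with spore inoculum (4×10^6 spore/mL) applied a day later. Disease control rated on Botrytis lesions after 3-4 days at 23 °C and 100% humidity.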

Botrytis cinerea [2] = test: Vine grey mold (grape berries); format: in vivo; conditions: average of six berries, 7-10 days; for pest or weed control at 50 ppm: grape berries treated with 50 ppm, read-out: % DISEASE CONTROL 50 ppm; for pest or weed control at 200 ppm: grape berries treated with 200 ppm, read-out: % DISEASE CONTROL 200 ppm
How it was run: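 Preventive berry test: compound at 50 or 200 ppm (acetone/water, 0.05% Tween 20) applied one day before inoculation with 10^6 spores/mL Botrytis conidia. After 7-10 days at 20 °C under 12 h light, infected surface area rated; disease control expressed as percent reduction from control mean; repeated-test values averaged.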

[3] = concentration required to inhibit the rate of DCPIP reduction by 50%; Botrytis cinerea isolate Nick mitochondria; read-out: I50 (μM conc.)

T1 sequence (A0A384J5E4 1-300): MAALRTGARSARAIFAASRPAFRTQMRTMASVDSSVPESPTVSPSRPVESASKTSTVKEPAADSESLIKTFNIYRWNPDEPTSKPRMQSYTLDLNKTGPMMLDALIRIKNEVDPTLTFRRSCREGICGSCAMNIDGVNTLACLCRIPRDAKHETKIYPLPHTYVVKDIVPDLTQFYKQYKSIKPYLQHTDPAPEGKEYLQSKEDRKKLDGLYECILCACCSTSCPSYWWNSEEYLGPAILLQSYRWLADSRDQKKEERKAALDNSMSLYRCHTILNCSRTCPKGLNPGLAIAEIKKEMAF
T1 sequence (A0A384J8V8 1-189): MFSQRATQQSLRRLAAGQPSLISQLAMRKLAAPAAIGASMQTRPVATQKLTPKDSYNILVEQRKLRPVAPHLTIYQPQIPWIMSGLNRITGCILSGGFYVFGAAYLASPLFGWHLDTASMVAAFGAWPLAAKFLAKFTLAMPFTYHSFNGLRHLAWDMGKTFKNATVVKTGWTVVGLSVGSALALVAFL
T1 sequence (A0A384JHJ5 1-192): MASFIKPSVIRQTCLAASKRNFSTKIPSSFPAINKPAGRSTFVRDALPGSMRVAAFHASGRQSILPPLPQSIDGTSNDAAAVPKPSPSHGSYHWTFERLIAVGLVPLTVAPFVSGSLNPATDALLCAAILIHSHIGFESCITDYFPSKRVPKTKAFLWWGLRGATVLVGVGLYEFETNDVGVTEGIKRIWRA
T1 sequence (A0A384K456 1-647 partner): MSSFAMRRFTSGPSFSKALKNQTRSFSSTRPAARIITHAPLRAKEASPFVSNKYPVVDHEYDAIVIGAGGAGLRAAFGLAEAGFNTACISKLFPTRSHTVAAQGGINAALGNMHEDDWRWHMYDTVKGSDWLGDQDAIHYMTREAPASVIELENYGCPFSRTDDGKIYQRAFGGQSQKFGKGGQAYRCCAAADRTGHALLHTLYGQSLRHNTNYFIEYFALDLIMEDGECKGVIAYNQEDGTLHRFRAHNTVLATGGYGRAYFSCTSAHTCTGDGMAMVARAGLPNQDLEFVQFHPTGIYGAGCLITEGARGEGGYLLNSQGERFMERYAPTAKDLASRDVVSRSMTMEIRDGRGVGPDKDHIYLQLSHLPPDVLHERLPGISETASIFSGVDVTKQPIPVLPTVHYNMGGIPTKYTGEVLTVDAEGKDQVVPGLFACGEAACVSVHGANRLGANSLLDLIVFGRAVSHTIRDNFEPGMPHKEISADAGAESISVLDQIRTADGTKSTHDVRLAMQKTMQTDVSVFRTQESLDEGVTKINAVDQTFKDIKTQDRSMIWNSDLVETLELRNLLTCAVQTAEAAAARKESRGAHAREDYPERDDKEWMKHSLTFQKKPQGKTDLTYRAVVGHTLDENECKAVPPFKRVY

Compound | Disease Control Rating at 0.02 mg/mL (Rhizoctonia solani) | Disease Control Rating at 0.1 mg/mL (Rhizoctonia solani) | Disease Control Rating at 0.5 mg/mL (Rhizoctonia solani) | IC50 (succinate dehydrogenase; [3]) [µM] | Disease Control Rating at 20 ppm (Botrytis cinerea [1]) | Disease Control Rating at 100 ppm (Botrytis cinerea [1]) | Disease Control Rating at 500 ppm (Botrytis cinerea [1]) | pest or weed control at 50 ppm (Botrytis cinerea [2]) [%] | pest or weed control at 200 ppm (Botrytis cinerea [2]) [%] | IC50 (succinate dehydrogenase; read-out: I50 (μM conc.); concentration required to inhibit the rate of DCPIP reduction by 50%; Botrytis cinerea isolate Nick mitochondria) [µM]
Cn1nc(C(F)F)c(C(=O)Nc2ccccc2C2CCCCCC2)c1F [Example 115, 1H-pyrazole-4-carboxamide, N-(2-cycloheptylphenyl)-3-(difluoromethyl)-5-fluoro-1-methyl-] | 3 | 3 | 3 | 0.0065 | 1 | 2 | 3 | 42 | 95 | 
Cn1cc(C(=O)Nc2ccccc2C=C2CCCCC2)c(C(F)F)n1 [Example 116, 1H-pyrazole-4-carboxamide, N-[2-(cyclohexylidenemethyl)phenyl]-3-(difluoromethyl)-1-methyl-] | 1 | 1 | 3 | 0.048 | 0 | 0 | 1 | 21 | 68 | 
Cn1cc(C(=O)Nc2ccccc2CC2=CCCC2)c(C(F)F)n1 [Example 117, 1H-pyrazole-4-carboxamide, N-[2-(1-cyclopenten-1-ylmethyl)phenyl]-3-(difluoromethyl)-1-methyl-] |  |  | 0 | 0.17 | 0 | 1 | 2 | 80 | 19 | 
Cn1cc(C(=O)Nc2ccccc2C=C2CCCC2)c(C(F)F)n1 [Example 118, 1H-pyrazole-4-carboxamide, N-[2-(cyclopentylidenemethyl)phenyl]3-(difluoromethyl)-1-methyl-] |  |  | 1 | 0.029 |  |  | 0 | 37 | 87 | 
Cn1cc(C(=O)Nc2ccccc2C2=CCCCCCC2)c(C(F)F)n1 [Example 119] |  |  | 2 |  | 0 | 1 | 2 | 73 | 84 | 0.0035
Cn1cc(C(=O)Nc2ccccc2C2=CCCCCCC2)c(C(F)(F)F)n1 [Example 120, 1H-pyrazole-4-carboxamide, N-[2-(1-cycloocten-1-yl)phenyl]-1-methyl-3-(trifluoromethyl)-] |  |  | 3 | 0.0041 | 0 | 0 | 2 | 60 | 82 | 
Cn1cc(C(=O)Nc2ccccc2C2=CC(C)(C)CC(C)(C)C2)c(C(F)F)n1 [Example 121, 1H-pyrazole-4-carboxamide, 3-(difluoromethyl)-1-methyl-N-[2-(3,3,5,5-tetramethyl-1-cyclohexen-1-yl)phenyl]-] | 1 | 3 | 3 | 0.0069 | 0 | 0 | 1 | 33 | 64 | 
Cn1cc(C(=O)Nc2ccccc2C2=CCCC2(C)C)c(C(F)F)n1 [Example 122, 1H-pyrazole-4-carboxamide, 3-(difluoromethyl)-N-[2-(5,5-dimethyl-1-cyclopenten-1-yl)phenyl]-1-methyl-] |  |  | 0 | 0.034 | 1 | 2 | 2 | 67 | 79 | 
Cn1cc(C(=O)Nc2ccccc2C2=CC(C)(C)CC(C)(C)C2)c(C(F)(F)F)n1 [Example 123, 1H-pyrazole-4-carboxamide, 1-methyl-N-[2-(3,3,5,5-tetramethyl-1-cyclohexen-1-yl)phenyl]-3-(trifluoromethyl)-] |  |  | 0 | 0.023 | 0 | 0 | 0 | 14 | 36 | 
CC1=C(c2ccccc2NC(=O)c2cn(C)nc2C(F)F)C(C)CCC1 (stereo not shown) [Example 124, 1H-pyrazole-4-carboxamide, 3-(difluoromethyl)-N-[2-(2,6-dimethyl-1-cyclohexen-1-yl)phenyl]-1-methyl-] |  |  | 2 | 0.013 | 0 | 1 | 2 | 48 | 96 | 
CCC1CC=C(c2ccccc2NC(=O)c2cn(C)nc2C(F)F)CC1 (stereo not shown) [Example 125, 1H-pyrazole-4-carboxamide, 3-(difluoromethyl)-N-[2-(4-ethyl-1-cyclohexen-1-yl)phenyl]-1-methyl-] | 2 | 2 | 3 | 0.005 | 2 | 1 | 2 | 88 | 93 | 
CCC1CC=C(c2ccccc2NC(=O)c2cn(C)nc2C(F)(F)F)CC1 (stereo not shown) [Example 126, 1H-pyrazole-4-carboxamide, N-[2-(4-ethyl-1-cyclohexen-1-yl)phenyl]-1-methyl-3-(trifluoromethyl)-] |  |  | 3 | 0.0066 | 0 | 1 | 1 | 59 | 97 | 
Cn1cc(C(=O)Nc2ccccc2C=C2CCCC2)c(C(F)(F)F)n1 [Example 127, 1H-pyrazole-4-carboxamide, N-[2-(cyclopentylidenemethyl)phenyl]-1-methyl-3-(trifluoromethyl)-] |  |  | 2 | 0.083 | 0 | 0 | 1 | 12 | 52 | 
CC(C)C1=C(c2ccccc2NC(=O)c2cn(C)nc2C(F)(F)F)CCCC1 [Example 128, 1H-pyrazole-4-carboxamide, N-[2-[2-(1-methylethyl)-1-cyclohexen-1-yl]phenyl]-1-methyl-3-(trifluoromethyl)-] |  |  | 0 | 1.3 | 0 | 0 | 0 | 0 | 0 | 
Cn1cc(C(=O)Nc2ccccc2CC2CCCCC2)c(C(F)F)n1 [Example 129, 1H-pyrazole-4-carboxamide, N-[2-(cyclohexylmethyl)phenyl]-3-(difluoromethyl)-1-methyl-] | 3 | 3 | 3 | 0.11 | 0 | 0 | 0 | 7 | 0 | 
Cn1cc(C(=O)Nc2ccccc2CC2CCCCC2)c(C(F)(F)F)n1 [Example 130, 1H-pyrazole-4-carboxamide, N-[2-(cyclohexylmethyl)phenyl]-1-methyl-3-(trifluoromethyl)-] |  |  | 2 | 0.37 | 0 | 0 | 0 | 2 | 21 | 
CC(C)C1CCCC=C1c1ccccc1NC(=O)c1cn(C)nc1C(F)(F)F (stereo not shown) [Example 131, 1H-pyrazole-4-carboxamide, 1-methyl-N-[2-[6-(1-methylethyl)-1-cyclohexen-1-yl]phenyl]-3-(trifluoromethyl)-] |  |  | 2 | 0.19 | 0 | 0 | 0 | 7 | 0 | 
